Measurements taken from publication PMC8429728, “TNK1 is a ubiquitin-binding and 14-3-3-regulated kinase that can be targeted to block tumor growth” (Nature Communications, 2021).
Where two headings read alike, the source gives them in different places.

Tests used:
Assay in all cases: biochemical
Design in all cases: Reaction Biology 371-kinase panel at Km ATP, per cent enzyme activity relative to DMSO, single dose in duplicate
[1] = molecular target: T1, DCAMKL2 (Homo sapiens, UniProt Q8N568); conditions: duplicate measurements, Km ATP
T1 construct: gene DCLK2
How it was run: (§1)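 Percent kinase activity relative to vehicle (DMSO) is reported for a 371-kinase in vitro panel at 300 nM compound; IC50 values derive from variable-slope sigmoidal fits with the lower plateau fixed at 0.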

[2] = molecular target: CDK4/cyclin D1 (Homo sapiens, UniProt P11802); conditions: duplicate measurements, Km ATP
How it was run: as §1

[3] = molecular target: MAK (Homo sapiens, UniProt P20794); conditions: duplicate measurements, Km ATP
How it was run: as §1

[4] = molecular target: CDK17/cyclin Y (PCTK2) (Homo sapiens, UniProt Q00537); conditions: duplicate measurements, Km ATP; read-out: % Enzyme Activity (relative to DMSO controls) / TP-0005801 (0.3µM) / Data 1
How it was run: as §1

[5] = molecular target: ZAP70 (Homo sapiens, UniProt P43403); conditions: duplicate measurements, Km ATP
How it was run: as §1

[6] = molecular target: T2, CK1a1L (Homo sapiens, UniProt Q8N752); conditions: duplicate measurements, Km ATP
T2 construct: gene CSNK1A1L
How it was run: as §1

[7] = molecular target: T3, PKCiota (Homo sapiens, UniProt P41743); conditions: duplicate measurements, Km ATP
T3 construct: gene PRKCI
How it was run: as §1

[8] = molecular target: PRKX (Homo sapiens, UniProt P51817); conditions: duplicate measurements, Km ATP
How it was run: as §1

[9] = molecular target: EPHA6 (Homo sapiens, UniProt Q9UF33); conditions: duplicate measurements, Km ATP
How it was run: as §1

[10] = molecular target: CDK18/cyclin Y (PCTK3) (Homo sapiens, UniProt Q07002); conditions: duplicate measurements, Km ATP
How it was run: as §1

[11] = molecular target: T4, RSK2 (Homo sapiens, UniProt P51812); conditions: duplicate measurements, Km ATP
T4 construct: gene RPS6KA3
How it was run: as §1

[12] = molecular target: MARK4 (Homo sapiens, UniProt Q96L34); conditions: duplicate measurements, Km ATP
How it was run: as §1

[13] = molecular target: EPHB4 (Homo sapiens, UniProt P54760); conditions: duplicate measurements, Km ATP
How it was run: as §1

[14] = molecular target: TYK1/LTK (Homo sapiens, UniProt P29376); conditions: duplicate measurements, Km ATP; read-out: % Enzyme Activity (relative to DMSO controls) / TP-0005801 (0.3µM) / Data 1
How it was run: as §1

[15] = molecular target: PAK3 (Homo sapiens, UniProt O75914); conditions: duplicate measurements, Km ATP
How it was run: as §1

[16] = molecular target: SGK1 (Homo sapiens, UniProt O00141); conditions: duplicate measurements, Km ATP
How it was run: as §1

[17] = molecular target: CLK4 (Homo sapiens, UniProt Q9HAZ1); conditions: duplicate measurements, Km ATP
How it was run: as §1

[18] = molecular target: DMPK (Homo sapiens, UniProt Q09013); conditions: duplicate measurements, Km ATP
How it was run: as §1

[19] = molecular target: T5, PKCzeta (Homo sapiens, UniProt Q05513); conditions: duplicate measurements, Km ATP
T5 construct: gene PRKCZ
How it was run: as §1

[20] = molecular target: T6, NIM1 (Homo sapiens, UniProt Q8IY84); conditions: duplicate measurements, Km ATP
T6 construct: gene NIM1K
How it was run: as §1

[21] = read-out: % Enzyme Activity (relative to DMSO controls) / TP-0005801 (0.3µM) / Data 1
[22] = read-out: % Enzyme Activity (relative to DMSO controls) / TP-0005801 (0.3µM) / Data 2

T3 sequence (P41743 whole entry): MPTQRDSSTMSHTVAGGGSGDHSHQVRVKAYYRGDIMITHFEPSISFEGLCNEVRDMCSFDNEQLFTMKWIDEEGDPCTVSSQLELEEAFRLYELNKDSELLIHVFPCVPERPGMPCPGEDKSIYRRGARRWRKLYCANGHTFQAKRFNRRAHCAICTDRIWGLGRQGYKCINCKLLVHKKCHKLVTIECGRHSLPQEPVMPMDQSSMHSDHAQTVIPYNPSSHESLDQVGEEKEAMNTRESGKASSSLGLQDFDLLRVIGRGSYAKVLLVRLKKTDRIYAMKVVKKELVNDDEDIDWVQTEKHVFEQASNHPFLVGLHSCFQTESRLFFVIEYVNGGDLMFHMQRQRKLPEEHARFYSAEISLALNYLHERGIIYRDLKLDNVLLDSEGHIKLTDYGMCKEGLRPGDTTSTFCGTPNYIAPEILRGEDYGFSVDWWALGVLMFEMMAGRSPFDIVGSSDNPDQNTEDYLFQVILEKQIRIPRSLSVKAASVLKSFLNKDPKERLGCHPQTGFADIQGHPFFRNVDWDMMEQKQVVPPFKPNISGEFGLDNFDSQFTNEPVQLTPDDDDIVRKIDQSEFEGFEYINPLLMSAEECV
T5 sequence (Q05513 whole entry): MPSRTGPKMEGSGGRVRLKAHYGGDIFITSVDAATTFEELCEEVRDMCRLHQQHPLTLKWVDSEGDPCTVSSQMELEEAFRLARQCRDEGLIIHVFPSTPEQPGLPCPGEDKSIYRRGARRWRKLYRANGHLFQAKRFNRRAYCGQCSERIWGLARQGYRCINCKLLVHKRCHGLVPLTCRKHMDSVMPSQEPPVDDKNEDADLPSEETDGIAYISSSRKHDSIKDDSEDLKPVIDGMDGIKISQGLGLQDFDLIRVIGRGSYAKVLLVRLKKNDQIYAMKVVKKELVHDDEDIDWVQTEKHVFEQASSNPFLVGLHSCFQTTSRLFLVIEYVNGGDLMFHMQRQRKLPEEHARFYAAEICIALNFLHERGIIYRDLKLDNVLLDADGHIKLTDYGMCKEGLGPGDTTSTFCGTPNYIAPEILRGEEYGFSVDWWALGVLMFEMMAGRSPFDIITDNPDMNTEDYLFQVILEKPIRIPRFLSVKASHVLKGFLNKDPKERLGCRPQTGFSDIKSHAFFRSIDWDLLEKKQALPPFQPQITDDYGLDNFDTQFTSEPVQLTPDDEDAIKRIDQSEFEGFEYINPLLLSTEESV
Chain of MAK (P20794 whole entry): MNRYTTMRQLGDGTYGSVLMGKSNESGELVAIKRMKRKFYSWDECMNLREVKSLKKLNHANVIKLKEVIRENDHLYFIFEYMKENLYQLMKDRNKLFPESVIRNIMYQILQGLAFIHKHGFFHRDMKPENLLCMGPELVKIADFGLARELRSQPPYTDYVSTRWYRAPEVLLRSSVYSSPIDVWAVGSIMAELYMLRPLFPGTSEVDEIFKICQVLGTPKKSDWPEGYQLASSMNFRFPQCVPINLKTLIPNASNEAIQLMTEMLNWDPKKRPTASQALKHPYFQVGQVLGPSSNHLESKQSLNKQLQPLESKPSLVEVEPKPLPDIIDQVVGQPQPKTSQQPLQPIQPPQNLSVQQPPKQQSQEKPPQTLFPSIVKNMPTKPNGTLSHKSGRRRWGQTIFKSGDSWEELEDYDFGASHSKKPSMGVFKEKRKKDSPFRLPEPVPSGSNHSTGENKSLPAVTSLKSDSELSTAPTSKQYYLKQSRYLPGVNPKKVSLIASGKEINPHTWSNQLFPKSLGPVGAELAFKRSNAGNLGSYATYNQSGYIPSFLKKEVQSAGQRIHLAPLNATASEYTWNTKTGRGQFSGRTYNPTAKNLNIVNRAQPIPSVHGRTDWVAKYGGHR
Chain of PRKX (P51817 whole entry): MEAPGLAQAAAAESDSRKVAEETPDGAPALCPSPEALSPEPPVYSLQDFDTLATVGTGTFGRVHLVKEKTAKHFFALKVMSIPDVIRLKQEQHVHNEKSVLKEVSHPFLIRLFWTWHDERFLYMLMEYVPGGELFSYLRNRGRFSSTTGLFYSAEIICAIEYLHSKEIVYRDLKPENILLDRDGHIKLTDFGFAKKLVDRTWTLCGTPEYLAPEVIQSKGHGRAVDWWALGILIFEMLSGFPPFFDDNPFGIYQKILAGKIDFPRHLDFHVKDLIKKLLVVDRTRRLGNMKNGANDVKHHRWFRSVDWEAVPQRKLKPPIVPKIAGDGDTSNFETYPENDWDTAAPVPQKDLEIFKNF
Chain of PAK3 (O75914 whole entry): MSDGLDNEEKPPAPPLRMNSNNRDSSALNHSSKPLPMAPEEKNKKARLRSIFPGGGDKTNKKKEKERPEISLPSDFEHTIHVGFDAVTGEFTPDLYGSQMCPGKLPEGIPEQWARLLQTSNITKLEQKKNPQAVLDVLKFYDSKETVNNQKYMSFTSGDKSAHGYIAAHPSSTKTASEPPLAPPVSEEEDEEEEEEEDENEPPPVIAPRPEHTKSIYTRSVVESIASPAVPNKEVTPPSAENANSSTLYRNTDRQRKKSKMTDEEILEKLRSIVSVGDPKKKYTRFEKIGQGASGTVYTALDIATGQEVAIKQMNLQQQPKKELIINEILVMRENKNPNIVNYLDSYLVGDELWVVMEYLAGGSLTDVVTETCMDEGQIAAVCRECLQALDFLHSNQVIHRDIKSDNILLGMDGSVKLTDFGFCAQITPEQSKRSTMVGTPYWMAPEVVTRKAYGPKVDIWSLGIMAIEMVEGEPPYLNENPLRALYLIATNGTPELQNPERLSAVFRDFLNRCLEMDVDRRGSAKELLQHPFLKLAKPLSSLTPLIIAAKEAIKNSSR
Chain of CDK4/cyclin D1 (P11802 whole entry): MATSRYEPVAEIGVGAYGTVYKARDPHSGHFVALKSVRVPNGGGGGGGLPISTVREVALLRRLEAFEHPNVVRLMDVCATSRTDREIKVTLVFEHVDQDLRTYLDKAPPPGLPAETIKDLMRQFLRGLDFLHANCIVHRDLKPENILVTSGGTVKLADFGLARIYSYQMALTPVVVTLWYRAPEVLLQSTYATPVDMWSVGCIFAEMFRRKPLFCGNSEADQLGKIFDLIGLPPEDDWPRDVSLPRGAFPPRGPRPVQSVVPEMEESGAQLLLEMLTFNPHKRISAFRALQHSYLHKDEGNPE
Chain of CDK4/cyclin D1 (P24385 whole entry partner): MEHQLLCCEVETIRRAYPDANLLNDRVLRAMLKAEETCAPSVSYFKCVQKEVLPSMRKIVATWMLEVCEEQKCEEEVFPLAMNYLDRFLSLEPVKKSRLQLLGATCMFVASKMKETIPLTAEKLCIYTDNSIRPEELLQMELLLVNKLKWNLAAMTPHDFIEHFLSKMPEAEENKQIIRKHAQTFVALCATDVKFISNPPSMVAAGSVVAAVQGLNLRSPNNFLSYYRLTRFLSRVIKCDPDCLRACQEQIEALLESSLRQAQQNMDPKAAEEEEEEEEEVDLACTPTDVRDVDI
Chain of ZAP70 (P43403 whole entry): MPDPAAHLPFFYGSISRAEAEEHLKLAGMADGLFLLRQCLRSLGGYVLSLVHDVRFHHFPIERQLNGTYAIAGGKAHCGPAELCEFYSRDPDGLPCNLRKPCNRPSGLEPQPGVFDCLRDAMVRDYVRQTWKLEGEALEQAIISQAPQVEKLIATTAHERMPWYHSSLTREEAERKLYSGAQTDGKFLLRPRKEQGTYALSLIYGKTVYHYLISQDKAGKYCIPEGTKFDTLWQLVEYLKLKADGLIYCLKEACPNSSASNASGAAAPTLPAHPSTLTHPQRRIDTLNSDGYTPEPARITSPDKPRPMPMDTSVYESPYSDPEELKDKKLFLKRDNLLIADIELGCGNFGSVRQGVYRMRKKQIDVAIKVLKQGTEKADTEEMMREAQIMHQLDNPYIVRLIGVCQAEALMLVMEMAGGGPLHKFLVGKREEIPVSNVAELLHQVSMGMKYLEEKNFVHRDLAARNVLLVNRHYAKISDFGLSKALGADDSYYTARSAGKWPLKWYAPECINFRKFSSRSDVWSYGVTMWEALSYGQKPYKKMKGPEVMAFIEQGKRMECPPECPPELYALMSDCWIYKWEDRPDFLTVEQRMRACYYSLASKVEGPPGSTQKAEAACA
T1 sequence (Q8N568 whole entry): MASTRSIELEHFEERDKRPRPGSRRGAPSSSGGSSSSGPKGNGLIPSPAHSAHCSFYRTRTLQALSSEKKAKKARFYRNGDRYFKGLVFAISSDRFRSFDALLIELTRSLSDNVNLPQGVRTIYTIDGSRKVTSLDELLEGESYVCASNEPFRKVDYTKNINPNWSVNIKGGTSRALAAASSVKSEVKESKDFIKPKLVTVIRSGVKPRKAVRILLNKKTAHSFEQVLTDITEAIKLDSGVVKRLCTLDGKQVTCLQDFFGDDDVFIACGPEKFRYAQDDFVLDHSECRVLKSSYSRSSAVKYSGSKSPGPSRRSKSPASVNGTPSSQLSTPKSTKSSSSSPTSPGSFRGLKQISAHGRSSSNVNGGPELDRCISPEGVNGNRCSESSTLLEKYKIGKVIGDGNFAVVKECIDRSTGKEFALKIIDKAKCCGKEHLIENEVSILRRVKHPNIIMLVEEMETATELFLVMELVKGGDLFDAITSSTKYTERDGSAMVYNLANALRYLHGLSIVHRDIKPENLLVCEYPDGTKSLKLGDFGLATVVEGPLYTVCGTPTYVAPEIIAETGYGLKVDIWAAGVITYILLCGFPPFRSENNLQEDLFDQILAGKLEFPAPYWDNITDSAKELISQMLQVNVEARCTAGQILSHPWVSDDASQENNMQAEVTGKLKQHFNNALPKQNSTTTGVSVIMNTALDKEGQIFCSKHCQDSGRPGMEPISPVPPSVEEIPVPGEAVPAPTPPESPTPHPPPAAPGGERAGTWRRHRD

remaining activity at 0.3 µM [1, 21]: 93.7% | remaining activity at 0.3 µM [1, 22]: 89.7% | remaining activity at 0.3 µM [2, 21]: 106% | remaining activity at 0.3 µM [2, 22]: 104% | remaining activity at 0.3 µM [3, 21]: 98.4% | remaining activity at 0.3 µM [3, 22]: 94.1% | remaining activity at 0.3 µM [4]: 101% | remaining activity at 0.3 µM [5, 21]: 95.5% | remaining activity at 0.3 µM [5, 22]: 91.3% | remaining activity at 0.3 µM [6, 21]: 101% | remaining activity at 0.3 µM [6, 22]: 99.8% | remaining activity at 0.3 µM [7, 21]: 101% | remaining activity at 0.3 µM [7, 22]: 99.1% | remaining activity at 0.3 µM [8, 21]: 93.7% | remaining activity at 0.3 µM [8, 22]: 92.5% | remaining activity at 0.3 µM [9, 21]: 103% | remaining activity at 0.3 µM [9, 22]: 98.6% | remaining activity at 0.3 µM [10, 21]: 98% | remaining activity at 0.3 µM [10, 22]: 94.2% | remaining activity at 0.3 µM [11, 21]: 90.5% | remaining activity at 0.3 µM [11, 22]: 84.9% | remaining activity at 0.3 µM [12, 21]: 89.8% | remaining activity at 0.3 µM [12, 22]: 88.4% | remaining activity at 0.3 µM [13, 21]: 103% | remaining activity at 0.3 µM [13, 22]: 102% | remaining activity at 0.3 µM [14]: 16.4% | remaining activity at 0.3 µM [15, 21]: 99% | remaining activity at 0.3 µM [15, 22]: 97.9% | remaining activity at 0.3 µM [16, 21]: 91.7% | remaining activity at 0.3 µM [16, 22]: 91% | remaining activity at 0.3 µM [17, 21]: 30.4% | remaining activity at 0.3 µM [17, 22]: 30.2% | remaining activity at 0.3 µM [18, 21]: 102% | remaining activity at 0.3 µM [18, 22]: 101% | remaining activity at 0.3 µM [19, 21]: 97.2% | remaining activity at 0.3 µM [19, 22]: 97.1% | remaining activity at 0.3 µM [20, 21]: 102% | remaining activity at 0.3 µM [20, 22]: 95.6%
Compound: COc1cc(N2CCN(C)CC2)c(C)cc1Nc1ncc(Br)c(Nc2cccnc2N(C)C)n1 [TP-5801]
